The test system of the experiment is HCV genotype 1b replicon in Huh 7 cells. Put plainly: HCV replicon assay (luciferase readout, 1b_Huh-Luc/Neo-ET cell line). The format is cell-based. As for the experimental part: Biological activity of the compounds of the invention was determined using an HCV replicon assay. The 1b_Huh-Luc/Neo-ET cell line persistently expressing a bicistronic genotype 1b replicon in Huh 7 cells was obtained from R^eBLikon GMBH. This cell line was used to test compound inhibition using luciferase enzyme activity readout as a measurement of compound inhibition of replicon levels.
On Day 1 (the day after plating), each compound is added in triplicate to the cells. Plates incubated for 72 h prior to running the luciferase assay. Enzyme activity was measured using a Bright-Glo Kit (cat. number E2620) manufactured by Promega Corporation. The following equation was used to generate a percent control value for each compound. % Control=(Average Compound Value/Average Control)*100
The EC50 value was determined using GraphPad Prism and the following equation: Y=Bottom+(Top−Bottom)/(1+10^((Log IC50−X)*HillSlope))
EC50 values of compounds are repeated several times in the replicon assay.
Example compounds of the disclosed invention are illustrated in Tables 1-9 attached as appendices. The tables show inhibitory activity of many of the example compounds with respect to HCV 1b. […] The tables further provide mass spectrometry results for the synthesized example compounds.
(A replicon is a self-replicating genome or part of one, used to study replication in cells.)

Where [1] appears, read: Hepatitis C virus, Huh-7, 72 h, read-out: Inhibition of HCV genotype 1b, Table 4, 72 h incubation.
[2] abbreviates: Hepatitis C virus, Huh-7, 72 h, read-out: Inhibition of HCV genotype 1b, Table 3, 72 h incubation.
[3] abbreviates: Hepatitis C virus, Huh-7, 72 h, read-out: Inhibition of HCV genotype 1b, Table 5, 72 h incubation.
Setting [4] is: Hepatitis C virus, Huh-7, 72 h, read-out: Inhibition of HCV genotype 1b, Table 1, 72 h incubation.

Where two headings read alike, the source gives them in different places.

Take `COC(=O)N[C@H](C(=O)N[C@@H](C)c1nc2ccc(-c3ccc(-c4ccc5nc([C@@H]6CCCN6C(=O)[C@@H](c6ccccc6)N(C)C)[nH]c5c4)cc3)cc2[nH]1)C(C)C` [compound 2037]: the EC50 under setting [1] is less than 1 nM.

Take `COC(=O)N[C@@H](C(=O)N1CCC[C@H]1c1ncc(-c2cc(F)c(N3CCC(c4cnc([C@@H]5CCCN5C(=O)[C@H](NC(=O)OC)C(C)C)[nH]4)CC3)c(F)c2)[nH]1)C(C)C` [compound 498]: the EC50 under setting [2] lay within 1 to 9.9 nM.

For `COC(=O)N[C@H](C(=O)N1CCC[C@H]1c1nc2ccc(-c3ccc4nc([C@@H]5CCCN5C(=O)[C@@H](NC(=O)OC)C(C)C)[nH]c4c3)cc2[nH]1)C(C)C` [Compound 850], the EC50 (Hepatitis C virus, Huh-7, 72 h, read-out: Inhibition of HCV genotype 1b, Table 6, 72 h incubation) was less than 1 nM.

For the compound `CC(C)(C)OC(=O)N[C@@H](C(=O)N1CCC[C@H]1c1ncc(-c2ccc(N3CCC(c4cnc([C@@H]5CCCN5C(=O)[C@H](NC(=O)OC(C)(C)C)c5ccccc5)[nH]4)CC3)c(F)c2)[nH]1)c1ccccc1` [compound 450], the EC50 under setting [2] was less than 1 nM.

As to `COC(=O)N[C@H](C(=O)N1CCC[C@H]1c1nc2ccc(-c3ccc(-c4ccc5nc([C@@H]6CCCN6C(=O)[C@@H](NC(=O)OC)[C@@H](C)O)[nH]c5c4)cc3)cc2[nH]1)[C@@H](C)O` [compound 557], the EC50 under setting [1] is less than 1 nM.

As to `COC(=O)N[C@H](C(=O)N[C@@H](C)c1ncc(-c2ccc(C34CCC(c5cnc([C@@H]6CCCN6C(=O)[C@H](NC(=O)OC)c6ccccc6)[nH]5)(CC3)CC4)cc2)[nH]1)C(C)C` [compound 2083], under setting [3], the EC50 is less than 1 nM.

Turning to `COC(=O)N[C@@H](C)C(=O)N1CCC[C@H]1c1ncc(-c2ccc(C34CCC(c5cnc([C@@H]6CCCN6C(=O)[C@@H](NC(=O)OC)C(C)C)[nH]5)(CC3)CC4)cc2)[nH]1` [compound 2081], the EC50 under setting [3] is less than 1 nM.

For the compound `COC(=O)N[C@@H](C(=O)N1CCC[C@H]1c1ncc(-c2cc(F)c(N3CCC(c4cnc([C@@H]5CCCN5C(=O)[C@H](NC(=O)[C@@H]5CCCN5C)c5ccccc5)[nH]4)CC3)c(F)c2)[nH]1)c1ccccc1` [compound 472], under setting [2], the EC50 was less than 1 nM.

`COC(=O)N[C@H](C(=O)N1CCC[C@H]1c1ncc(-c2ccc(C34CCC(c5cnc([C@@H]6CCCN6C(=O)[C@H](NC(=O)OC)c6ccccc6)[nH]5)(CC3)CC4)cc2)[nH]1)C(C)C` [compound 624]: the EC50 under setting [3] is less than 1 nM.

For the compound `CC(C)(C)OC(=O)N[C@@H](C(=O)N1CCC[C@H]1c1ncc(-c2ccc(-c3ccc4nc([C@@H]5CCCN5C(=O)[C@H](NC(=O)OC(C)(C)C)c5ccccc5)[nH]c4c3)cc2)[nH]1)c1ccccc1` [compound 400], the EC50 (Hepatitis C virus, Huh-7, 72 h, read-out: Inhibition of HCV genotype 1b, Table 2, 72 h incubation) was less than 1 nM.

Regarding `CNC(=O)N[C@@H](C(=O)N1CCC[C@H]1c1ncc(C23CCC(c4ccc(-c5cnc([C@@H]6CCCN6C(=O)[C@@H](NC(=O)OC)C(C)C)[nH]5)cc4)(CC2)CC3)[nH]1)c1ccccc1` [compound 2089], under setting [3], the EC50 was less than 1 nM.

Regarding `CN(C)C(=O)N[C@@H](C(=O)N1CCC[C@H]1C(=O)NC1CCN(c2ccc(-c3cnc([C@@H]4CCCN4C(=O)[C@H](NC(=O)N(C)C)c4ccccc4)[nH]3)cc2F)CC1)c1ccccc1` [compound 457], under setting [2], the EC50 was less than 1 nM.

As to `CC(C)(C)OC(=O)N[C@@H](C(=O)N1CCC[C@H]1C(=O)NC1CCC(c2ccc(-c3cnc([C@@H]4COCCN4C(=O)[C@H](NC(=O)OC(C)(C)C)c4ccccc4)[nH]3)cc2)CC1)c1ccccc1` (some centres unmarked) [compound 368], under setting [4], the EC50 is less than 1 nM.

On to `COC(=O)N[C@H](C(=O)N[C@@H](C)c1nc2ccc(-c3ccc(-c4ccc5nc([C@@H]6CCCN6C(=O)[C@H](C(C)C)N(C)C)[nH]c5c4)cc3)cc2[nH]1)C(C)C` [compound 937], for which, under setting [1], the EC50 is 1 to 9.9 nM.

As for `CNC(=O)N[C@H](C(=O)N1CCC[C@H]1c1ncc(-c2ccc([C@H]3CC[C@H](c4cnc([C@@H]5CCCN5C(=O)[C@H](NC(=O)OC)c5ccccc5)[nH]4)CC3)cc2)[nH]1)C(C)C` [compound 2004], under setting [4], the EC50 is less than 1 nM.

For `COC(=O)N[C@@H](C(=O)N1CCC[C@H]1c1ncc(-c2ccc(C34CCC(c5cnc([C@@H]6CCCN6C(=O)[C@@H](NC(=O)N6CCN(C)CC6)C(C)C)[nH]5)(CC3)CC4)cc2)[nH]1)c1ccccc1` [compound 642], the EC50 (read-out: Inhibition of HCV genotype 1b, Table 5, 72 h incubation) was in the range of 1 to 9.9 nM.

For `COC(=O)N[C@@H](C(=O)N1CCOC[C@H]1c1ncc(C2CCN(c3c(F)cc(-c4cnc([C@@H]5CCCN5C(=O)[C@H](NC(=O)OC(C)(C)C)c5ccccc5)[nH]4)cc3F)CC2)[nH]1)c1ccccc1` [compound 497], the EC50 under setting [2] was less than 1 nM.

Take `COC(=O)N[C@@H](C(=O)N1CCC[C@H]1c1ncc(-c2ccc([C@H]3CC[C@](C)(c4cnc([C@@H]5CCCN5C(=O)[C@H](NC(=O)OC)c5ccccc5)[nH]4)CC3)cc2)[nH]1)c1ccccc1` [compound 2006]: under setting [4], the EC50 is less than 1 nM.

On to `COC(=O)N[C@H](C(=O)N1CCC[C@H]1c1ncc(-c2ccc(C34CCC(c5cnc([C@@H]6CCCN6C(=O)[C@H](C(C)C)N(C)C)[nH]5)(CC3)CC4)cc2)[nH]1)C(C)C` [compound 2056], for which, under setting [3], the EC50 was less than 1 nM.

Take `COC(=O)N[C@H](C(=O)N1CCC[C@H]1c1nc2ccc(-c3ccc(-c4ccc5nc([C@@H]6CCCN6C(=O)[C@@H](NC(=O)OC)C6CCOCC6)[nH]c5c4)cc3)cc2[nH]1)C1CCOCC1` [compound 2039]: the EC50 under setting [1] is less than 1 nM.

For the compound `COC(=O)N[C@H](C(=O)N1CCC[C@H]1c1ncc(C23CCC(c4ccc(-c5cnc([C@@H]6CCCN6C(=O)[C@H](NC(=O)OC)c6ccccc6)[nH]5)cc4)(CC2)CC3)[nH]1)C(C)C` [compound 617], under setting [3], the EC50 was less than 1 nM.

Take `COC(=O)N[C@H](C(=O)N1CCC[C@H]1c1ncc(C23CCC(c4ccc(-c5cnc([C@@H]6CCCN6C(=O)[C@H](C(C)C)N6CCC(O)CC6)[nH]5)cc4)(CC2)CC3)[nH]1)C(C)C` [compound 2071]: the EC50 under setting [3] is less than 1 nM.

As to `COC(=O)N[C@H](C(=O)N1CCOC[C@H]1c1ncc(-c2ccc(C34CCC(c5cnc([C@@H]6CCCN6C(=O)[C@@H](NC(=O)OC)C(C)C)[nH]5)(CC3)CC4)cc2)[nH]1)C(C)C` [compound 2087], under setting [3], the EC50 is less than 1 nM.

Take `O=C(N[C@@H](C(=O)N1CCC[C@H]1CNC(=O)C12CCC(c3ccc(-c4cnc([C@@H]5CCCN5C(=O)[C@H](NC(=O)C5CC5)c5ccccc5)[nH]4)cc3)(CC1)CC2)c1ccccc1)C1CC1` [compound 602]: the EC50 under setting [3] was less than 1 nM.

Turning to `CCN(CC)[C@@H](C(=O)N1CCC[C@H]1c1ncc(C2CCN(c3c(F)cc(-c4cnc([C@@H]5CCCN5C(=O)[C@H](NC(=O)OC)c5ccccc5)[nH]4)cc3F)CC2)[nH]1)c1ccccc1` [compound 467], under setting [2], the EC50 was less than 1 nM.

On to `COC(=O)N[C@H](C(=O)N[C@@H](C)c1ncc(-c2ccc(C34CCC(c5cnc([C@@H]6CCCN6C(=O)[C@H](C(C)C)N(C)C)[nH]5)(CC3)CC4)cc2)[nH]1)C(C)C` [compound 2078], for which the EC50 under setting [3] is less than 1 nM.

On to `COC(=O)N[C@H](C(=O)N1CCC[C@H]1c1ncc(-c2ccc(C34CCC(c5cnc([C@@H]6CCCN6C(=O)[C@@H](NC(=O)N6CCCCC6)C(C)C)[nH]5)(CC3)CC4)cc2)[nH]1)C(C)C` [compound 640], for which the EC50 under setting [3] was greater than 1000 nM.

Take `COC(=O)N[C@H](C(=O)N1CCC[C@H]1c1ncc(-c2cc(F)c(N3CCC(c4cnc([C@@H]5CCCN5C(=O)[C@@H](NC(=O)OC)C(C)C)[nH]4)CC3)c(F)c2)[nH]1)C(C)C` [compound 499]: the EC50 under setting [2] is less than 1 nM.

Regarding `COC(=O)N[C@H](C)C(=O)N1CCC[C@H]1c1ncc(-c2ccc(C34CCC(c5cnc([C@@H]6CCCN6C(=O)[C@@H](C)NC(=O)OC)[nH]5)(CC3)CC4)cc2)[nH]1` [compound 917], the EC50 under setting [3] was less than 1 nM.

In the case of `CN1CCN(C(=O)N[C@@H](C(=O)N2CCC[C@H]2c2ncc(-c3ccc(C4CCC(c5cnc([C@@H]6CCCN6C(=O)[C@H](NC(=O)N6CCN(C)CC6)c6ccccc6)o5)CC4)cc3)[nH]2)c2ccccc2)CC1` (some centres unmarked) [compound 359], under setting [4], the EC50 is 1 to 9.9 nM.

On to `COC(=O)N[C@H](C(=O)N1CCC[C@H]1c1ncc([C@H]2CC[C@H](c3ccc(-c4cnc([C@@H]5CCCN5C(=O)[C@H](NC(=O)OC)c5ccccc5)[nH]4)cc3)CC2)[nH]1)C(C)C` [compound 2002], for which the EC50 under setting [4] was less than 1 nM.

Take `CC(C)[C@H](C(=O)N1CCC[C@H]1c1ncc(-c2ccc(C34CCC(c5cnc([C@@H]6CCCN6C(=O)[C@@H](C(C)C)N(C)C)[nH]5)(CC3)CC4)cc2)[nH]1)N(C)C` [compound 920]: the EC50 under setting [3] is 10 to 999 nM.

`COC(=O)N[C@H](C(=O)N1CCC[C@H]1c1ncc(-c2ccc([C@H]3CC[C@H](c4cnc([C@@H]5CCCN5C(=O)[C@@H](NC(=O)OC)C(C)C)[nH]4)CC3)cc2)[nH]1)C(C)C` [compound 381]: the EC50 under setting [4] was less than 1 nM.

Consider `COC(=O)N[C@@H](C(=O)N1CCC[C@H]1c1ncc(-c2cc(F)c(N3CCC(c4cnc([C@@H]5CCCN5C(=O)[C@H](NS(=O)(=O)C5CC5)c5ccccc5)[nH]4)CC3)c(F)c2)[nH]1)c1ccccc1` [compound 477], for which the EC50 under setting [2] is less than 1 nM.

With `CC(C)[C@H](NC(=O)OC(C)(C)C)C(=O)N1CCC[C@H]1c1ncc(-c2ccc([C@H]3CC[C@@H](c4cnc([C@@H]5CCCN5C(=O)[C@@H](NC(=O)OC(C)(C)C)C(C)C)[nH]4)CC3)cc2)[nH]1` [compound 384], under setting [4], the EC50 is 10 to 999 nM.

Source of the values: US9120779B2, “Inhibitors of HCV NS5A” (PRESIDIO PHARMACEUTICALS, INC., priority 2008, dated 2015).
